Data set [1] concerns mouse embryonic fibroblasts (MEFs). The data set is described as follows: EU incorporation (transcription rate) by flow cytometry. The data set is classed as cell-based. Conditions: Control-Pure and 6FDDRR cells, 4 dpi (FIG. 2L).
Data set [2] shares this test system. Briefly: viable cells by FSC and SSC profile via FACS. Conditions: 6FDDRR, 4 dpi (FIG. 9L).
The test system is the same in data set [3]. Briefly: EdU incorporation (DNA synthesis, S phase) by flow cytometry. (In general: Flow cytometry measures light scatter and fluorescence of single cells or particles in a stream.)
Data set [4] shares this test system. The class given is cell-based. Conditions: 6FDD condition, 14 dpi (FIG. 9G).
The test system is the same in data set [5]. Briefly: biotinylated-trimethylpsoralen (bTMP) immunofluorescence, negative DNA supercoiling. The data set is classed as cell-based. The settings on record: 100 μM for 15 minutes (FIG. 12A-B). The method, then: Biotinylated-trimethylpsoralen (bTMP) Immunofluorescence. One day after addition of N3 media (and without addition of glial cultures), cells were treated with 1 μM aphidicolin for 1.5-2 hours in N3 media. For control experiments, MEFs were treated with or without 100 μM bleomycin prior to incubation with psoralen. Then cells were incubated with 0.3 mg/mL EZ-Link Psoralen-PEG3-Biotin (Thermo Cat. No: 29986) for 15 minutes. Cultures were then exposed to 3 kJ m-2 of […] light (Fotodyne UV Transilluminator 3-3000 with 15W bulbs) for 15 minutes at room temperature in the dark followed by 3 washes in PBS. Then cells were fixed with cold 70% ethanol for 30 minutes at 4° C. followed by another 3 washes in PBS. Cells were then incubated with Alexa Fluor 594 Streptavidin (Thermo Cat. No: 532356) for one hour at room temperature in the dark, washed with PBS 3 times, and then stained with Hoescht (1:1000) for 10 minutes at room temperature in the dark. Coverslips were mounted onto glass slides using lmmuMount and imaged using the Zeiss LSM 800 confocal microscope.

As for `C[C@@]1(CO)[C@H](O)CC[C@@]2(C)[C@H]1CC[C@H]1C[C@@H]3C[C@@]12CC[C@]3(O)CO` [Aphidicolin, aphidicolin], the transcription rates entry in data set [1] was “increased”. Further, the “cell count (total viable cells)” value in data set [2] is reported as “only slightly reducing”. The “percent of cells in S phase” value in data set [3] (EdU incorporation at 4 dpi, 1 μM for 18 hours, 6FDDRR (FIG. 9J-K)) was “dramatically reduced”. Further, the EdU incorporation result in data set [3] (uninfected MEFs, 10 μM for 2 hr (FIG. 12N)) was “did not incorporate EdU”.

With `CO[C@@]12[C@H](COC(N)=O)C3=C(C(=O)C(C)=C(N)C3=O)N1C[C@@H]1N[C@@H]12` [mitomycin C], the iMN conversion result in data set [4] was “impaired”.

On to bleomycin, for which the “biotinylated TMP intercalation” value in data set [5] is recorded as “decreased”.
